Data as given in paper PMC11825922, “Molecular interactions, structural effects, and binding affinities between silver ions (Ag^+) and amyloid beta (Aβ) peptides” (Scientific Reports, 2025).
Where two headings read alike, the source gives them in different places.

What was measured:
[1] = biological target: Aβ peptides; details: cited from earlier work
[2] = biological target: T1, wt Aβ40 peptide (Homo sapiens, UniProt P05067); assay: Tyr10 intrinsic fluorescence quenching titration with AgNO3, Morrison equation fit; assay type: binding; details: 20 mM MES buffer, 20 °C, read-out: Mean KD^App value
T1 construct: Aβ(1–40) and Aβ(1–42), here abbreviated Aβ40 and Aβ42; purchased AlexoTech AB (Umeå, Sweden)
T1 sequence (P05067 672-711 limits assumed): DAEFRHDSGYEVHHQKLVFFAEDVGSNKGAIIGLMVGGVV
Method: A Jobin Yvon Horiba Fluorolog 3 fluorescence spectrophotometer (Longjumeau, France) was used to record the fluorescence emission intensity at 305 nm (excitation wavelength 276 nm) for samples of 10 µM Aβ peptide in 20 mM MES buffer, using a quartz cuvette with 4 mm path length at 20 °C. Measurements were carried out at pH 7.2 for different Aβ variants, i.e. Aβ40, Aβ40(NoHis) mutant, Aβ40(H6A) mutant, and Aβ(4–40). For Aβ40, measurements were carried out also at pH 5.3, and at pH 7.2 in the presence of 50 mM SDS detergent. AgNO3 was titrated to the samples using stock solutions of 1 mM, 2 mM, and 10 mM. The measured tyrosine fluorescence intensities were plotted against the concentration of Ag^+ ions, and dissociation constants were evaluated by fitting the data curves to Eq. (1), i.e. the Morrison Equation [94]:1 I=I0+I∞-I0/2·Aβ·KD+Ag+Aβ-KD+Ag+Aβ^2-4·Ag·Aβ
Here, I0 is the initial fluorescence intensity with no added Ag^+ ions, I∞ is the steady-state intensity at the end of the titration, [Ag] is the concentration of added Ag^+ ions, KD is the dissociation constant, and [Aβ] is the concentration of Aβ peptide. […] Adding a linear term for the fluorescence quenching effect of free Ag^+ ions was considered unnecessary. […]
It is previously known that Ag^+ ions can quench the intrinsic fluorescence of amino acids such as tyrosines, including the Tyr10 residue in Aβ peptides. […]

[3] = biological target: T2, Aβ40 peptide (Homo sapiens, UniProt P05067); assay: CD spectroscopy on Aβ secondary structure; details: 10 µM Aβ40, 20 mM phosphate buffer pH 7.3, 16–256 µM AgNO3, 20 °C
T2 construct: Aβ(1–40) and Aβ(1–42), here abbreviated Aβ40 and Aβ42; purchased AlexoTech AB (Umeå, Sweden)
T2 sequence (P05067 672-711 limits assumed): as above
Method: Circular dichroism (CD) spectroscopy was performed with a Chirascan CD instrument (Applied Photophysics Ltd., U.K.) using a quartz cuvette with 2 mm pathlength containing 600 µL of 10 µM Aβ40 peptide in 20 mM phosphate buffer, pH 7.3. CD spectra were recorded at 20 °C between 190 and 260 nm, with 0.5 nm step size. One sample contained only Aβ40 in buffer, while another sample contained also 50 mM SDS detergent, in order to mimic a membrane environment. To both samples, AgNO3 was added in steps of 16 µM, 56 µM, and 256 µM. The Chirascan Pro-Data v.4.4.1 software (Applied Photophysics Ltd., U.K.) was used to process the recorded spectra with an eight points smoothing filter (Savitzky-Golay).
Figure 3 CD spectra of 10 μM Aβ40 peptide in 20 mM phosphate buffer, pH 7.3. AgNO3 was titrated to the peptide, either in (A): buffer only, or (B): with 50 mM SDS present. Black: Aβ40 in buffer. Orange: + 50 mM SDS (in B only). Red: + 16 µM AgNO3. Green: + 56 µM AgNO3. Blue: + 256 µM AgNO3.

[4] = biological target: T3, Aβ40 peptide fibrils (Homo sapiens, UniProt P05067); assay: AFM imaging of Aβ40 aggregates after 72 h incubation; details: 30 µM AgNO3, 10 µM Aβ40, 72 h, 37 °C, 5 mM MES pH 7.3
T3 construct: Aβ(1–40) and Aβ(1–42), here abbreviated Aβ40 and Aβ42; purchased AlexoTech AB (Umeå, Sweden)
T3 sequence (P05067 672-711 limits assumed): as above
Method: Samples for AFM imaging were produced by incubating 10 µM Aβ40 peptides in 5 mM MES buffer, pH 7.3, for 72 h at 37 °C with continuous shaking at 350 rpm together with different amounts of AgNO3, i.e. 0 µM; 2.5 µM; 5 µM; and 30 µM (corresponding to Ag^+:Aβ ratios of 0:1; 1:4; 1:2; and 3:1, respectively). The incubated samples were placed as 1 µL droplets on fresh silicon wafers (Siegert Wafer GmbH, Germany). After 2 min, 10 µL of Milli-Q water was added to the droplets, and then a lint-free wipe was used to remove all excess fluid. Next, the wafers were left to air-dry in a container, covered to protect from dust, and later the same day AFM images were recorded. A neaSNOM AFM unit (Neaspec GmbH, Germany) was used, running in tapping mode (Ω: 280 kHz, tapping amplitude 50–55 nm) and equipped with Pt/Ir-coated monolithic ARROW-NCPt Si tips (NanoAndMore GmbH, Germany) where the tip radius was less than 10 nm. Both topographic and mechanical phase images were recorded for 2.5 × 2.5 µm scanning areas (pixel size 200 × 200) with a scan speed of 2.5 ms/pixel. The images were minimally processed to perform basic plane levelling using the Gwyddion software.
Figure 4 AFM images for 10 µM Aβ40 peptides together with different concentrations of AgNO3, incubated with agitation for 72 h at 37 °C in 5 mM MES buffer, pH 7.3. (A) 0 µM AgNO3; (B) 2.5 µM AgNO3; (C) 5 µM AgNO3; (D) 30 µM AgNO3. […]

[5] = biological target: T4, Aβ42 oligomers (Homo sapiens, UniProt P05067); assay: BN-PAGE analysis of SDS-stabilized Aβ42 oligomers; details: 10, 100, 500 µM AgNO3, 100–120 µM Aβ42, 0.2% SDS, 37 °C 24 h
T4 construct: Synthetic lyophilized wildtype (wt) Aβ(1–42) peptide, abbreviated Aβ42; purchased JPT Peptide Technologies GmbH (Germany); host or cells: chemical synthesis
T4 sequence (P05067 672-713 limits assumed): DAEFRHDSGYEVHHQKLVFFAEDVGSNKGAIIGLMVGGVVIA
Method: (§1) The Aβ42 monomers were then used to prepare SDS-stabilized Aβ42 oligomers of approximately tetrameric size, using a previously published protocol[83] with the following modifications: the oligomers were prepared in D2O, at four-fold lower peptide concentration, and without the original dilution step[85]. The reaction mixture (100–120 μM Aβ42 in D2O-based PBS, containing 0.2% (6.9 mM) SDS) was incubated at 37 °C for 24 h together with either 0, 10, 100, or 500 µM AgNO3, respectively, and then flash-frozen in liquid N2 and stored at –20 °C for later analysis.
Homogeneous solutions of SDS-stabilized Aβ42 oligomers, prepared as described in Section “Preparation of Aβ42 oligomers” with either 0, 10, 100, or 500 µM silver nitrate, were analyzed with BN-PAGE using the Invitrogen system (ThermoFisher Scientific, USA). For this purpose, 4–16% Bis–Tris Novex gels (ThermoFisher Scientific, USA) were loaded with 10 μL of samples containing either Aβ42 monomers or Aβ42 oligomers with increasing concentrations of silver, calibrated against the Amersham High Molecular Weight calibration kit for native electrophoresis (GE Healthcare, USA). The gel was first run at 4 °C for 90 min and then stained with the Pierce Silver Staining kit according to the manufacturer’s instructions (ThermoFisher Scientific, USA). […]

[6] = biological target: T4, Aβ42 oligomers; assay: FTIR spectroscopy of SDS-stabilized Aβ42 oligomers; details: 0–500 µM AgNO3; FTIR with BN-PAGE
Method: as §1
Fourier-transform infrared (FTIR) spectra of SDS-stabilized Aβ42 oligomers (prepared as described in Section “Preparation of Aβ42 oligomers” with 0–500 µM AgNO3) were recorded in transmission mode on a Tensor 37 FTIR spectrometer (Bruker Optik GmbH., Germany) equipped with a […] and a liquid nitrogen-cooled MCT detector. The unit was continuously purged with dry air during the measurements. […] The sample shuttle allowed sample and reference spectra to be recorded without opening the chamber. FTIR spectra were recorded at room temperature in the 1900–800 cm^–1 range, using 6 mm aperture, 2 cm^–1 resolution, a zero-filling factor of two, and 300 scans for both background and sample spectra. […] All spectra were analyzed and plotted using the OPUS 5.5 software. Second derivatives were calculated with a 17 cm^–1 smoothing factor. […]

## [Ni+2] [Ni^2+]
[1]; read-out: Binding affinity
  Kd: 1 to 50 µM

## monovalent silver ions (Ag^+)
[2]; Aβ40 pH 7.2 + 50 mM SDS
  Kd: 25 µM
[2]; Aβ40 pH 7.2, 10 µM peptide
  Kd: 25 µM
[3]
  Effect on Aβ40 secondary structure (CD): slightly increased β-sheet structure
[4]
  Effect on Aβ40 fibril morphology (AFM): much more tangled together
[5]
  Average sizes, amounts and size distributions of Aβ42 oligomers versus without silver: approximately the same
[6]
  Effect on size, secondary structure, β-sheet planarity and number of strands of Aβ42 oligomers: no significant effect

## [Zn+2] [Zn^2+]
[1]; read-out: Binding affinity
  Kd: 1 to 50 µM

## [Cu+2] [Cu^2+]
[1]
  Binding affinity: sub-micromolar
[1]; fluorescence measurements, read-out: Binding affinity for the Aβ·Cu^2+ complex, corrected for buffer effects
  Kd: ~0.001 µM
